Experimental data published in patent US6525001B1, “Substituted pyrimidine and pyridine herbicides” (Mid-American Commercialization Corporation, priority 1997, dated 2003).

Columns and labels:
Test in all cases: Test B pre-/postemergence
Assay type in all cases: in vivo
Parameters in all cases: key: 0 is no effect; 10 is complete control
[1] = test system: corn (Zea mays)
Summary of the method: (§1)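 Scored visually 0 (none) to 10 (complete control) against untreated plants after twelve to sixteen greenhouse days. Test chemicals, formulated in surfactant-containing non-phytotoxic solvent, applied to soil after planting and, separately, onto 1- to 4-leaf (2–18 cm) plants.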

[2] = test system: bedstraw (Galium aparine)
Summary of the method: as §1

[3] = test system: soybean (Glycine max)
Summary of the method: as §1

[4] = test system: cocklebur (Xanthium strumarium)
Summary of the method: as §1

[5] = test system: momingglory (Ipomoea hederacea)
Summary of the method: as §1

[6] = test system: sugar beet (Beta vulgaris)
Summary of the method: as §1

[7] = test system: giant foxtail (Setaria faberii)
Summary of the method: as §1

[8] = test system: pigweed (Amaranthus retroflexus)
Summary of the method: as §1

[9] = test system: crabgrass (Digitaria sanguinalis)
Summary of the method: as §1

[10] = test system: wheat (Triticum aestivum)
Summary of the method: as §1

[11] = test system: rape (Brassica napus)
Summary of the method: as §1

[12] = test system: broadleaf signalgrass (Brachiaria decumbens)
Summary of the method: as §1

[13] = test system: velvetleaf (Abutilon theophrasti)
Summary of the method: as §1

[14] = test system: purple nutsedge (Cyperus rotundus)
Summary of the method: as §1

## Cc1cnc(-c2ccc(C(F)(F)F)cc2)nc1Cn1ccc(C(F)(F)C(F)(F)F)n1 [Compound 14]
[1]; Rate 62 g/ha, Postemergence
  Plant response rating, Corn: 2
[1]; Rate 62 g/ha, Preemergence
  Corn plant response rating: 0
[1]; Rate 125 g/ha, Postemergence
  Plant response rating, Corn: 2
[1]; Rate 125 g/ha, Preemergence
  Corn plant response rating: 0
[1]; Rate 250 g/ha, Postemergence
  Plant response rating, Corn: 3
[1]; Rate 250 g/ha, Preemergence
  Plant response rating, Corn: 0
[1]; Rate 500 g/ha, Postemergence
  Plant response rating, Corn: 3
[1]; Rate 500 g/ha, Preemergence
  Plant response rating, Corn: 3
[2]; Rate 62 g/ha, Postemergence
  Plant response rating, Bedstraw: 4
[2]; Rate 62 g/ha, Preemergence
  Bedstraw plant response rating: 0
[2]; Rate 125 g/ha, Postemergence
  Plant response rating, Bedstraw: 4
[2]; Rate 125 g/ha, Preemergence
  Bedstraw plant response rating: 0
[2]; Rate 250 g/ha, Postemergence
  Plant response rating, Bedstraw: 8
[2]; Rate 250 g/ha, Preemergence
  Plant response rating, Bedstraw: 0
[2]; Rate 500 g/ha, Postemergence
  Plant response rating, Bedstraw: 10
[2]; Rate 500 g/ha, Preemergence
  Plant response rating, Bedstraw: 2
[3]; Rate 62 g/ha, Postemergence
  Plant response rating, Soybean: 4
[3]; Rate 62 g/ha, Preemergence
  Soybean plant response rating: 0
[3]; Rate 125 g/ha, Postemergence
  Plant response rating, Soybean: 4
[3]; Rate 125 g/ha, Preemergence
  Soybean plant response rating: 0
[3]; Rate 250 g/ha, Postemergence
  Plant response rating, Soybean: 5
[3]; Rate 250 g/ha, Preemergence
  Plant response rating, Soybean: 0
[3]; Rate 500 g/ha, Postemergence
  Plant response rating, Soybean: 5
[3]; Rate 500 g/ha, Preemergence
  Plant response rating, Soybean: 1
[4]; Rate 62 g/ha, Postemergence
  Plant response rating, Cocklebur: 4
[4]; Rate 62 g/ha, Preemergence
  Cocklebur plant response rating: 0
[4]; Rate 125 g/ha, Postemergence
  Plant response rating, Cocklebur: 7
[4]; Rate 250 g/ha, Postemergence
  Plant response rating, Cocklebur: 7
[4]; Rate 250 g/ha, Preemergence
  Plant response rating, Cocklebur: 0
[4]; Rate 500 g/ha, Postemergence
  Plant response rating, Cocklebur: 7
[5]; Rate 62 g/ha, Postemergence
  Plant response rating, Morningglory: 2
[5]; Rate 62 g/ha, Preemergence
  Morningglory plant response rating: 0
[5]; Rate 125 g/ha, Postemergence
  Plant response rating, Morningglory: 6
[5]; Rate 125 g/ha, Preemergence
  Morningglory plant response rating: 0
[5]; Rate 250 g/ha, Postemergence
  Plant response rating, Morningglory: 6
[5]; Rate 250 g/ha, Preemergence
  Plant response rating, Morningglory: 2
[5]; Rate 500 g/ha, Postemergence
  Plant response rating, Morningglory: 8
[5]; Rate 500 g/ha, Preemergence
  Plant response rating, Morningglory: 8
[6]; Rate 62 g/ha, Postemergence
  Plant response rating, Sugarbeets: 7
[6]; Rate 62 g/ha, Preemergence
  Sugarbeets plant response rating: 3
[6]; Rate 125 g/ha, Postemergence
  Plant response rating, Sugarbeets: 8
[6]; Rate 125 g/ha, Preemergence
  Sugarbeets plant response rating: 5
[6]; Rate 250 g/ha, Postemergence
  Plant response rating, Sugarbeets: 8
[6]; Rate 250 g/ha, Preemergence
  Plant response rating, Sugarbeets: 6
[6]; Rate 500 g/ha, Postemergence
  Plant response rating, Sugarbeets: 9
[6]; Rate 500 g/ha, Preemergence
  Plant response rating, Sugarbeets: 9
[7]; Rate 62 g/ha, Postemergence
  Plant response rating, Giant foxtail: 1
[7]; Rate 62 g/ha, Preemergence
  Giant foxtail plant response rating: 0
[7]; Rate 125 g/ha, Postemergence
  Plant response rating, Giant foxtail: 1
[7]; Rate 125 g/ha, Preemergence
  Giant foxtail plant response rating: 4
[7]; Rate 250 g/ha, Postemergence
  Plant response rating, Giant foxtail: 1
[7]; Rate 250 g/ha, Preemergence
  Plant response rating, Giant foxtail: 7
[7]; Rate 500 g/ha, Postemergence
  Plant response rating, Giant foxtail: 3
[7]; Rate 500 g/ha, Preemergence
  Plant response rating, Giant foxtail: 9
[8]; Rate 62 g/ha, Postemergence
  Plant response rating, Redroot pigweed: 8
[8]; Rate 62 g/ha, Preemergence
  Redroot pigweed plant response rating: 0
[8]; Rate 125 g/ha, Postemergence
  Plant response rating, Redroot pigweed: 9
[8]; Rate 125 g/ha, Preemergence
  Redroot pigweed plant response rating: 2
[8]; Rate 250 g/ha, Postemergence
  Plant response rating, Redroot pigweed: 9
[8]; Rate 250 g/ha, Preemergence
  Plant response rating, Redroot pigweed: 4
[8]; Rate 500 g/ha, Postemergence
  Plant response rating, Redroot pigweed: 9
[8]; Rate 500 g/ha, Preemergence
  Plant response rating, Redroot pigweed: 4
[9]; Rate 62 g/ha, Postemergence
  Plant response rating, Crabgrass: 2
[9]; Rate 62 g/ha, Preemergence
  Crabgrass plant response rating: 0
[9]; Rate 125 g/ha, Postemergence
  Plant response rating, Crabgrass: 2
[9]; Rate 125 g/ha, Preemergence
  Crabgrass plant response rating: 1
[9]; Rate 250 g/ha, Postemergence
  Plant response rating, Crabgrass: 2
[9]; Rate 250 g/ha, Preemergence
  Plant response rating, Crabgrass: 7
[9]; Rate 500 g/ha, Postemergence
  Plant response rating, Crabgrass: 4
[9]; Rate 500 g/ha, Preemergence
  Plant response rating, Crabgrass: 8
[10]; Rate 62 g/ha, Postemergence
  Plant response rating, Wheat: 0
[10]; Rate 62 g/ha, Preemergence
  Wheat plant response rating: 0
[10]; Rate 125 g/ha, Postemergence
  Plant response rating, Wheat: 0
[10]; Rate 125 g/ha, Preemergence
  Wheat plant response rating: 0
[10]; Rate 250 g/ha, Postemergence
  Plant response rating, Wheat: 2
[10]; Rate 250 g/ha, Preemergence
  Plant response rating, Wheat: 0
[10]; Rate 500 g/ha, Postemergence
  Plant response rating, Wheat: 3
[10]; Rate 500 g/ha, Preemergence
  Plant response rating, Wheat: 0
[11]; Rate 62 g/ha, Postemergence
  Plant response rating, Rape: 5
[11]; Rate 62 g/ha, Preemergence
  Rape plant response rating: 0
[11]; Rate 125 g/ha, Postemergence
  Plant response rating, Rape: 6
[11]; Rate 125 g/ha, Preemergence
  Rape plant response rating: 1
[11]; Rate 250 g/ha, Postemergence
  Plant response rating, Rape: 6
[11]; Rate 250 g/ha, Preemergence
  Plant response rating, Rape: 2
[11]; Rate 500 g/ha, Postemergence
  Plant response rating, Rape: 7
[11]; Rate 500 g/ha, Preemergence
  Plant response rating, Rape: 8
[12]; Rate 62 g/ha, Postemergence
  Plant response rating, B. signalgrass: 2
[12]; Rate 62 g/ha, Preemergence
  B. signalgrass plant response rating: 0
[12]; Rate 125 g/ha, Postemergence
  Plant response rating, B. signalgrass: 2
[12]; Rate 125 g/ha, Preemergence
  B. signalgrass plant response rating: 0
[12]; Rate 250 g/ha, Postemergence
  Plant response rating, B. signalgrass: 3
[12]; Rate 250 g/ha, Preemergence
  Plant response rating, B. signalgrass: 0
[12]; Rate 500 g/ha, Postemergence
  Plant response rating, B. signalgrass: 4
[12]; Rate 500 g/ha, Preemergence
  Plant response rating, B. signalgrass: 5
[13]; Rate 62 g/ha, Postemergence
  Plant response rating, Velvetleaf: 3
[13]; Rate 62 g/ha, Preemergence
  Velvetleaf plant response rating: 0
[13]; Rate 125 g/ha, Postemergence
  Plant response rating, Velvetleaf: 4
[13]; Rate 125 g/ha, Preemergence
  Velvetleaf plant response rating: 0
[13]; Rate 250 g/ha, Postemergence
  Plant response rating, Velvetleaf: 4
[13]; Rate 250 g/ha, Preemergence
  Plant response rating, Velvetleaf: 1
[13]; Rate 500 g/ha, Postemergence
  Plant response rating, Velvetleaf: 4
[13]; Rate 500 g/ha, Preemergence
  Plant response rating, Velvetleaf: 7
[14]; Rate 62 g/ha, Postemergence
  Plant response rating, Nutsedge: 0
[14]; Rate 62 g/ha, Preemergence
  Nutsedge plant response rating: 0
[14]; Rate 125 g/ha, Postemergence
  Plant response rating, Nutsedge: 0
[14]; Rate 125 g/ha, Preemergence
  Nutsedge plant response rating: 0
[14]; Rate 250 g/ha, Postemergence
  Plant response rating, Nutsedge: 0
[14]; Rate 250 g/ha, Preemergence
  Plant response rating, Nutsedge: 0
[14]; Rate 500 g/ha, Postemergence
  Plant response rating, Nutsedge: 0
[14]; Rate 500 g/ha, Preemergence
  Plant response rating, Nutsedge: 0
